Structures can show the parent of a compound that is named as a salt.
How the values were obtained:
[1] = Cell cytotoxicity test: protection of HT22 cells against glutamate toxicity (EC50) and cytotoxicity of the compounds (CC50), MTT; type: cell-based, mouse; conditions: mouse, HT22 cells (mouse hippocampal neuron)
Protocol: (§1) HT22 cells (mouse hippocampal neuron, Salk Institute and KRIBB) were plated in a 96-well plate at a density of 3×10^3 cells/well for 16 hrs before treatment. The cells were treated with five millimolar glutamate and various concentrations of the inventive compounds and incubated for 24 hrs in a growth media (DMEM with 10% FBS and 1% penicillin streptomycin). Then, the cells were treated with 3-(4,5-dimethylthiazol-2-yl)-2,5-diphenyltetrazolium bromide (MTT, Sigma®) for 4 hrs and absorbance of each well was measured with a plate reader at a wavelength of 450 nm. [Da-Qing, et. al., Anti-oxidant and anti-inflammatory activities of macelignan in murine hippocampal cell line and primary culture of rat microglia cells, BBRC, 2005, 331, 1264-1269].
(§2) In Table 1, EC50 is neuroprotective effect against glutamate toxicity and CC50 is cytotoxicity of the compounds. The EC50 values were statistically analyzed using Prizm® (GraphPad Software Inc., San Diego, Calif., USA).

[2] = system: HT22 cells (mouse hippocampal neuron); experiment: as above; type: cell-based; conditions: Mus musculus, HT-22, five millimolar glutamate, 24 hrs, read-out: EC50 (neuroprotective effect against glutamate toxicity)
Protocol: as §1, §2

| SMILES | CC50 at 24 h [1] [µM] | EC50 [2] [µM] |
| --- | --- | --- |
| CCN(C)c1cc2c(cc1O)[C@]13CCCC[C@@H]1[C@H](C2)NCC3 [Example 103, (+)-2-(Ethylmethylamino)-3-hydroxymorphinan TFA salt] | > 100 | 1.59 |
| CCCCc1cc2c(cc1O)[C@]13CCCC[C@@H]1[C@H](C2)NCC3 [Example 83, (+)-2-Butyl-3-hydroxymorphinan TFA salt] | 51.5 | 2.07 |
| Oc1cc2c(cc1O)[C@]13CCCC[C@@H]1[C@H](C2)NCC3 [Example 10, (+)-2,3-Dihydroxymorphinan TFA salt] |  | 12.1 |
| CCc1ccc(Nc2cc3c(cc2O)[C@]24CCCC[C@@H]2[C@H](C3)NCC4)cc1 [Example 53, (+)-2-(4-Ethylphenylamino)-3-hydroxymorphinan TFA salt] | 1.6 | 0.0402 |
| COc1ccc(Nc2cc3c(cc2O)[C@]24CCCC[C@@H]2[C@H](C3)NCC4)c(OC)c1 [Example 40, (+)-2-(2,4-Dimethoxyphenylamino)-3-hydroxymorphinan TFA salt] | 7.2 | 0.033 |
| Cc1ccc(-c2cc3c(cc2O)[C@]24CCCC[C@@H]2[C@H](C3)NCC4)cc1 [Example 75, (+)-3-Hydroxy-2-(4-methylphenyl)morphinan TFA salt] | 9.4 | 1.66 |
| Nc1ccccc1Nc1cc2c(cc1O)[C@]13CCCC[C@@H]1[C@H](C2)NCC3 [Example 106, (+)-2-(2-Aminophenylamino)-3-hydroxymorphinan TFA salt] | 21.8 | 0.0366 |
| Cc1c2c(cc(O)c1Nc1ccccc1NS(C)(=O)=O)[C@]13CCCC[C@@H]1[C@H](C2)NCC3 [Example 134, (+)-3-Hydroxy-2-(2-(methanesulfonamido)phenylamino)-1-methylmorphinan TFA salt] | 53.2 | 0.153 |
| Oc1cc2c(cc1Nc1cccc(F)c1O)C[C@@H]1NCC[C@]23CCCC[C@H]13 [Example 57, (+)-2-(3-Fluoro-2-hydroxyphenylamino)-3-hydroxymorphinan TFA salt] | 5.5 | 0.199 |
| Oc1cc2c(cc1Nc1ccccc1C(F)(F)F)C[C@@H]1NCC[C@]23CCCC[C@H]13 [Example 52, (+)-3-Hydroxy-2-(2-(trifluoromethyl)phenylamino)morphinan TFA salt] | 1.5 | 0.0249 |
| Oc1cc2c(cc1Nc1ccc(Cl)c(Cl)c1)C[C@@H]1NCC[C@]23CCCC[C@H]13 [Example 65, (+)-2-(3,4-Dichlorophenylamino)-3-hydroxymorphinan TFA salt] | 1.6 | 0.314 |
| Oc1cc2c(cc1Nc1ccc(Br)cc1)C[C@@H]1NCC[C@]23CCCC[C@H]13 [Example 33, (+)-2-(4-Bromophenylamino)-3-hydroxymorphinan TFA salt] | 1.67 | 0.0697 |
| CCCc1cc2c(cc1O)[C@]13CCCC[C@@H]1[C@H](C2)NCC3 [Example 82, (+)-3-Hydroxy-2-propylmorphinan TFA salt] | 28.2 | 1.02 |
| OCCNc1cc2c(cc1O)[C@]13CCCC[C@@H]1[C@H](C2)NCC3 [Example 100, (+)-3-Hydroxy-2-(2-hydroxyethylamino)morphinan TFA salt] | > 100 | 11.7 |
| Oc1cc2c(cc1Sc1ccccc1)C[C@@H]1NCC[C@]23CCCC[C@H]13 [Example 73, (+)-3-Hydroxy-2-phenylthiomorphinan TFA salt] | 5.57 | 1.67 |
| CN(C)c1ccccc1Nc1cc2c(cc1O)[C@]13CCCC[C@@H]1[C@H](C2)NCC3 [Example 126, (+)-2-(2-(Dimethylamino)phenylamino)-3-hydroxymorphinan TFA salt] | 6.1 | 0.0121 |
| Oc1cc2c(cc1Nc1ccccc1Cl)C[C@@H]1NCC[C@]23CCCC[C@H]13 [Example 48, (+)-2-(2-Chlorophenylamino)-3-hydroxymorphinan TFA salt] | 2.7 | 0.0991 |
| Oc1cc2c(cc1-c1ccc(C(F)(F)F)cc1)C[C@@H]1NCC[C@]23CCCC[C@H]13 [Example 79, (+)-3-Hydroxy-2-(4-trifluorophenyl)morphinan TFA salt] | 11 | 6.1 |
| O=S(=O)(Nc1ccccc1Nc1cc2c(cc1O)[C@]13CCCC[C@@H]1[C@H](C2)NCC3)c1ccccc1 [Example 113, (+)-2-(2-(Benzenesulfonamido)phenylamino)-3-hydroxymorphinan TFA salt] | 3.01 | 0.0272 |
| Oc1cc2c(cc1Nc1cccc(Cl)c1O)C[C@@H]1NCC[C@]23CCCC[C@H]13 [Example 55, (+)-2-(3-Chloro-2-hydroxyphenylamino)-3-hydroxymorphinan TFA salt] | 9.2 | 0.101 |
| CN1CCN(c2cc3c(cc2O)[C@]24CCCC[C@@H]2[C@H](C3)NCC4)CC1 [Example 24, (+)-3-Hydroxy-2-(4-methylpiperazin-1-yl)morphinan 2TFA salt] | 14.4 | 3.1 |
| CC(C)c1ccc(Nc2cc3c(cc2O)[C@]24CCCC[C@@H]2[C@H](C3)NCC4)cc1 [Example 54, (+)-3-Hydroxy-2-(4-isopropylphenylamino)morphinan TFA salt] | 1.5 | 0.0598 |

| SMILES | CC50 at 24 h [1] [µM] | EC50 [2] [µM] |
| --- | --- | --- |
| CC(=O)Nc1ccc(Nc2cc3c(cc2O)[C@]24CCCC[C@@H]2[C@H](C3)NCC4)cc1 [Example 116, TFA salt] | 36.5 | 2.84 |
| O=C(O)c1cc2c(cc1O)[C@]13CCCC[C@@H]1[C@H](C2)NCC3 [Example 14, ((+)-3-Hydroxymorphinan)-2-carboxylic acid TFA salt] |  | 86.3 |
| CCN(C)c1ccccc1Nc1cc2c(cc1O)[C@]13CCCC[C@@H]1[C@H](C2)NCC3 [Example 131, (+)-2-(2-(Ethyl(methyl)amino)phenylamino)-3-hydroxymorphinan TFA salt] | 1.5 | 0.0177 |
| Oc1c(Br)cc2c(c1Br)[C@]13CCCC[C@@H]1[C@H](C2)NCC3 [Example 6, (+)-2,4-Dibromo-3-hydroxymorphinan TFA salt] |  | 9.57 |
| Oc1c(F)cc2c(c1Cl)[C@]13CCCC[C@@H]1[C@H](C2)NCC3 [Example 2, (+)-4-Chloro-2-fluoro-3-hydroxymorphinan TFA salt] |  | 50 |
| Oc1ccc2c(c1Cl)[C@]13CCCC[C@@H]1[C@H](C2)NCC3 [Example 5, (+)-4-Chloro-3-hydroxymorphinan TFA salt] |  | 9.33 |
| Cc1cc2c(cc1O)[C@]13CCCC[C@@H]1[C@H](C2)NCC3 [Example 85, (+)-3-Hydroxy-2-methylmorphinan TFA salt] |  | 8.39 |
| Oc1c(Cl)cc2c(c1Cl)[C@]13CCCC[C@@H]1[C@H](C2)NCC3 [Example 4, (+)-2,4-Dichloro-3-hydroxymorphinan TFA salt] |  | 10.9 |
| Oc1c(F)cc2c(c1Br)[C@]13CCCC[C@@H]1[C@H](C2)NCC3 [Example 3, (+)-4-Bromo-2-fluoro-3-hydroxymorphinan TFA salt] |  | 19.8 |
| CCCCNC(=S)Nc1ccccc1Nc1cc2c(cc1O)[C@]13CCCC[C@@H]1[C@H](C2)NCC3 [Example 123, (+)-2-(2-(Butylthioureido)phenylamino)-3-hydroxymorphinan TFA salt] |  | 0.459 |
| Oc1cc2c(cc1-c1ccccc1)C[C@@H]1NCC[C@]23CCCC[C@H]13 [Example 80, (+)-3-Hydroxy-2-phenylmorphinan TFA salt] |  | 9.1 |
| Oc1c(Cl)cc2c(c1Br)[C@]13CCCC[C@@H]1[C@H](C2)NCC3 [Example 8, (+)-4-Bromo-2-chloro-3-hydroxymorphinan TFA salt] |  | 20.2 |
| Oc1cc2c(cc1F)C[C@@H]1NCC[C@]23CCCC[C@H]13 [Example 1, (+)-2-Fluoro-3-hydroxymorphinan TFA salt] |  | 9.68 |
| CCc1cc2c(cc1O)[C@]13CCCC[C@@H]1[C@H](C2)NCC3 [Example 84, (+)-2-Ethyl-3-hydroxymorphinan TFA salt] |  | 6.71 |
| CCCCOC(=O)Nc1ccccc1Nc1cc2c(cc1O)[C@]13CCCC[C@@H]1[C@H](C2)NCC3 [Example 118, (+)-2-(2-(Butoxycarbonylamino)phenylamino)-3-hydroxymorphinan TFA salt] |  | 0.891 |
| Oc1ccc2c(c1Br)[C@]13CCCC[C@@H]1[C@H](C2)NCC3 [Example 7, (+)-4-Bromo-3-hydroxymorphinan TFA salt] |  | 12.5 |
| COc1cc2c(cc1O)[C@]13CCCC[C@@H]1[C@H](C2)NCC3 [Example 12, (+)-3-Hydroxy-2-methoxymorphinan TFA salt] |  | 24.4 |
| OCc1cc2c(cc1O)[C@]13CCCC[C@@H]1[C@H](C2)NCC3 [Example 16, (+)-3-Hydroxy-2-(hydroxymethyl)morphinan TFA salt] |  | > 100 |
| O=Cc1cc2c(cc1O)[C@]13CCCC[C@@H]1[C@H](C2)NCC3 [Example 13, (+)-2-Formyl-3-hydroxymorphinan TFA salt] |  | 11.6 |
| Oc1cc2c(cc1-c1ccc(Cl)cc1)C[C@@H]1NCC[C@]23CCCC[C@H]13 [Example 74, (+)-2-(4-Chlorophenol)-3-hydroxymorphinan TFA salt] |  | 0.796 |
| Oc1cc2c(cc1I)C[C@@H]1NCC[C@]23CCCC[C@H]13 [Example 9, (+)-3-Hydroxy-2-iodomorphinan TFA salt] |  | 10.2 |

From patent US20120122848A1, “(+)-3-HYDROXYMORPHINAN DERIVATIVES AS NEUROPROTECTANTS” (GREEN CROSS CORPORATION, priority 2009, published 2012)
